Holding throughout (format): cell-based
The subject of test [1] is E. coli UBMS 88-1 Tet B. In words: microbe, parasite or virus in culture. The conditions noted are these: Escherichia coli, UBMS881TETB, 18 h, 18 hours at 35° C.
Test [2] concerns E. coli PRP1 Tet A. In words: microbe, parasite or virus in culture. The conditions noted are these: Escherichia coli, PRP1TETA, 18 h, 18 hours at 35° C.
In test [3] the test system is E. coli MC 4100 TNIOC Tet B. In words: microbe, parasite or virus in culture. Particulars: Escherichia coli, 18 h, 18 hours at 35° C.
The subject of test [4] is E. coli J3272 Tet C. In words: microbe, parasite or virus in culture. Particulars: Escherichia coli, J3272TETC, 18 h.
For test [5], the system named is E. coli UBMS 89-1 Tet M. In words: microbe, parasite or virus in culture. The conditions noted are these: Escherichia coli, UBMS891TETM, 18 h, 18 hours at 35° C.
For test [6], the system named is E. coli UBMS 89-2 Tet sens. In words: MIC, agar dilution method. Particulars: Escherichia coli, UBMS892TETSENS, 18 h, 18 hours at 35° C., read-out: MIC.
Test [7] concerns E. coli J2175. In words: MIC, agar dilution method. The conditions noted are these: Escherichia coli, 18 hours at 35° C., read-out: MIC.
In test [8] the test system is E. coli UBMS 90-4 Tet M. In words: microbe, parasite or virus in culture. The conditions noted are these: Escherichia coli, UBMS904TETM, 18 h, 18 hours at 35° C.
Test [9] has as its system E. coli J3272 Tet D. In words: microbe, parasite or virus in culture. The conditions noted are these: Escherichia coli, J3272TETD, 18 h.
The test system of test [10] is S. mariescens FPOR 8733. In words: MIC, agar dilution method. Particulars: 18 h, 18 hours at 35° C.
Test [11] concerns X. maltophilia NEMC 87210. In words: MIC, agar dilution method. Particulars: Stenotrophomonas maltophilia.
In test [12] the test system is Ps. acruginosa ATCC 27853. In words: MIC, agar dilution method.
Test [13] concerns S. aureus UBMS 88-5 Tet M. In words: microbe, parasite or virus in culture. Particulars: Staphylococcus aureus, UBMS885TETM, 18 h.
The test system of test [14] is S. aureus UBMS 88-7 Tet K. In words: microbe, parasite or virus in culture. The conditions noted are these: Staphylococcus aureus, UBMS887TETK, 18 h, 18 hours at 35° C.
Test [15] deals with S. aureus UBMS 90-1 Tet M. In words: microbe, parasite or virus in culture. Particulars: Staphylococcus aureus, UBMS901TETM, 18 h, 18 hours at 35° C.
Test [16] relates to S. aureus UBMS 90-2 Tet M. In words: microbe, parasite or virus in culture. Particulars: Staphylococcus aureus, UBMS902TETM, 18 h, 18 hours at 35° C.
Test [17] concerns S. aureus IVES 2943. In words: MIC, agar dilution method. The conditions noted are these: Staphylococcus aureus.
Test [18] concerns S. aureus ROSE (MP). In words: MIC, agar dilution method. Particulars: Staphylococcus aureus, 18 hours at 35° C.
In test [19] the test system is S. aureus IVES 1 983. In words: MIC, agar dilution method. Particulars: Staphylococcus aureus.
Test [20] deals with S. hemolyticus AVHAH 88-3. In words: MIC, agar dilution method. Particulars: Streptococcus pyogenes.
The subject of test [21] is Enterococcus 12201. In words: MIC, agar dilution method. Particulars: 18 hours at 35° C.
The test system of test [22] is E. faecalis ATCC 29212. In words: MIC, agar dilution method. The conditions noted are these: Enterococcus faecalis.
The test system of test [23] is E. coli MC 4100 Tet sens. In words: MIC, agar dilution method. Particulars: Escherichia coli, 18 hours at 35° C., read-out: MIC.
Test [24] relates to E. coli BAJ9003 IMP MUT. In words: microbe, parasite or virus in culture. Particulars: Escherichia coli, BAJ9003IMPMUT, 18 h, 18 hours at 35° C.
Test [25] relates to E. coli UBMS 90-5 sens. In words: MIC, agar dilution method. Particulars: Escherichia coli, UBMS905SENS, 18 hours at 35° C., read-out: MIC.
Test [26] has as its system E. coli #311 (MP). In words: MIC, agar dilution method. Particulars: Escherichia coli, 18 hours at 35° C., read-out: MIC.
For test [27], the system named is E. coli ATCC 25922. In words: MIC, agar dilution method. Particulars: Escherichia coli, ATCC25922, 18 hours at 35° C., read-out: MIC.
In test [28] the test system is S. aureus NEMC 8769. In words: MIC, agar dilution method. The conditions noted are these: Staphylococcus aureus, NEMC8769; S. aureus NEMC 8769; 18 hours at 35° C.; read-out: MIC.
Test [29] has as its system S. aureus UBMS 88-4. In words: MIC, agar dilution method. The conditions noted are these: Staphylococcus aureus, UBMS884, 18 hours at 35° C., read-out: MIC.
Test [30] has as its system S. aureus SMITH (MP). In words: MIC, agar dilution method. The conditions noted are these: Staphylococcus aureus, 18 hours at 35° C., read-out: MIC.
In test [31] the test system is S. aureus ATCC 29213. In words: MIC, agar dilution method. The conditions noted are these: Staphylococcus aureus, ATCC29213, 18 hours at 35° C., read-out: MIC.
Where [32] appears, read: NEMC87210, 18 h, 18 hours at 35° C.
Setting [33] is: S. aureus UBMS 88-5 Tet M, 18 hours at 35° C.
Where [34] appears, read: AVHAH883, 18 h, 18 hours at 35° C.
The mark [35] stands for this setting: ATCC29212, 18 h, 18 hours at 35° C.
The mark [36] stands for this setting: IVES2943, S. aureus IVES 2943, 18 hours at 35° C., read-out: MIC.
Where [37] appears, read: IVES1983, S. aureus IVES 1 983, 18 hours at 35° C., read-out: MIC.
Where [38] appears, read: AVHAH883, 18 hours at 35° C., read-out: MIC.

≈ marks a conversion by molar mass, not a printed value. Counter-ions that a name gives are not always drawn. Like-named read-outs stand apart in the source and are kept apart here.

For `CN(C)[C@@H]1C(O)=C(C(N)=O)C(=O)[C@@]2(O)C(O)=C3C(=O)c4c(O)cccc4[C@@](C)(O)[C@H]3C[C@@H]12` [M, Tetracycline], the MIC in [1] is over 32 µg/mL; in test [2], 32 µg/mL (≈ 72 µM); in test [3], over 32 µg/mL; in test [4], over 32 µg/mL; in [5], 32 µg/mL (≈ 72 µM); in test [6], 2 µg/mL (≈ 4.5 µM). The MIC in [7] is 2 µg/mL (≈ 4.5 µM); in test [8], 32 µg/mL (≈ 72 µM); in test [9] it was over 32 µg/mL; in test [10] it was over 32 µg/mL; in test [11] (setting [32]), 8 µg/mL (≈ 18 µM); in test [12] (18 h), 16 µg/mL (≈ 36 µM). The MIC in test [13] (setting [33]) is over 32 µg/mL; in [14], over 32 µg/mL; in [15] it was over 32 µg/mL; in test [16], 32 µg/mL (≈ 72 µM); in [17] (IVES2943, 18 h) it was over 32 µg/mL; in test [18] (18 h), over 32 µg/mL. The MIC in test [19] (IVES1983, 18 h) was over 32 µg/mL; in test [20] (setting [34]) it was 1 µg/mL (≈ 2.25 µM); in test [21] (Enterococcus, 12201, 18 h), over 32 µg/mL; in [22] (setting [35]), 16 µg/mL (≈ 36 µM).

Consider `CN(C)c1ccc(O)c2c1C[C@H]1C[C@H]3[C@H](N(C)C)C(O)=C(C(N)=O)C(=O)[C@@]3(O)C(O)=C1C2=O` [L, Minocycline, reference compound], for which the MIC was over 32 µg/mL in test [8]; 0.25 µg/mL (≈ 0.546 µM) in [11] (setting [32]); 8 µg/mL (≈ 17.5 µM) in test [13]; 0.25 µg/mL (≈ 0.546 µM) in test [14]; 8 µg/mL (≈ 17.5 µM) in test [15]; 1 µg/mL (≈ 2.19 µM) in test [18] (read-out: MIC). In addition, the MIC in [20] (setting [34]) was found to be 0.25 µg/mL (≈ 0.546 µM).

On to `CCCCNCC(=O)Nc1c(Cl)cc2c(c1O)C(=O)C1=C(O)[C@]3(O)C(=O)C(C(N)=O)=C(O)[C@@H](N(C)C)C3CC1C2` (stereo partly drawn) [D, [4S-(4α,12aα)]-9-[[(Butylamino)acetyl]amino]-8-chloro-4-(dimethylamino) -1,4,4a,5,5a,6,11,12a-octahydro-3,10,12,12a-tetrahydroxy-1,11-dioxo-2-naphthacenecarboxamide dihydrochloride], for which the MIC turned out to be 2 µg/mL in [1]; 0.25 µg/mL in test [23]; 4 µg/mL in test [2]; 1 µg/mL in test [3]; 2 µg/mL in test [4]; 0.5 µg/mL in [5]. Moreover, the MIC in [6] stood at 2 µg/mL; in test [7], 1 µg/mL; in test [24] it was 0.25 µg/mL; in test [8] it was 1 µg/mL; in [25], 1 µg/mL; in [26] it was 1 µg/mL. In addition, the MIC in [27] is 1 µg/mL; in test [9], 1 µg/mL; in test [10] it was 16 µg/mL; in test [11] (setting [32]) it was 4 µg/mL; in test [12] (18 h), over 32 µg/mL; in test [28], 0.5 µg/mL. Moreover, the MIC in test [29] turned out to be 0.5 µg/mL; in test [13] it was 1 µg/mL; in [14], 8 µg/mL; in [15] it was 2 µg/mL; in test [16], 0.5 µg/mL; in test [17] (setting [36]), 16 µg/mL. Further, the MIC turned out to be 16 µg/mL in test [18] (read-out: MIC); 0.5 µg/mL in test [30]; 8 µg/mL in test [19] (setting [37]); 0.5 µg/mL in test [31]; 8 µg/mL in test [20] (setting [38]); 0.5 µg/mL in [21] (read-out: MIC). In [22] (setting [35]), this compound displayed an MIC of 0.25 µg/mL.

Turning to `CN(C)[C@@H]1C(O)=C(C(N)=O)C(=O)[C@@]2(O)C(O)=C3C(=O)c4c(cc(Cl)c(NC(=O)CCl)c4O)CC3CC12` (stereo partly drawn) [K, [4S-(4α,12aα)]-9-[(Chloroacetyl)amino]-8-chloro-4-(dimethylamino)-1,4,4a,5,5a ,6,11,12a-octahydro-3,10,12,12a-tetrahydroxy-1,11-dioxo-2-naphthacenecarboxamide hydrochloride], the MIC in test [1] was over 32 µg/mL; in test [23] it was 8 µg/mL; in test [2] it was over 32 µg/mL; in test [3], over 32 µg/mL; in test [4] it was over 32 µg/mL; in [5], 8 µg/mL. Moreover, the MIC is over 32 µg/mL in [6]; over 32 µg/mL in test [7]; 1 µg/mL in test [24]; over 32 µg/mL in [8]; over 32 µg/mL in [25]; 16 µg/mL in [26]. For the same compound, the MIC in test [27] was 16 µg/mL; in [9], over 32 µg/mL; in [10], over 32 µg/mL; in test [11] (NEMC87210, 18 hours at 35° C., read-out: MIC), 8 µg/mL; in [12] (Ps. acruginosa ATCC 27853, 18 hours at 35° C., read-out: MIC), over 32 µg/mL; in test [28], 0.5 µg/mL. For the same compound, the MIC worked out at 0.5 µg/mL in [29]; 1 µg/mL in test [13] (setting [33]); 4 µg/mL in [14]; 1 µg/mL in test [15]; 0.5 µg/mL in test [16]; 4 µg/mL in test [17] (setting [36]). For the same compound, the MIC came out at 4 µg/mL in [18] (read-out: MIC); 0.5 µg/mL in test [30]; 4 µg/mL in [19] (setting [37]); 0.5 µg/mL in test [31]; 4 µg/mL in test [20] (setting [38]); 2 µg/mL in test [21] (read-out: MIC). The MIC in test [22] (ATCC29212, 18 hours at 35° C., read-out: MIC) stood at 0.5 µg/mL.

For the origin of these results see patent US5495032A, “Process for producing 7-(substituted)-8-(substituted-9-[(substituted glycyl)amido]-6-demethyl-6-deoxytetracyclines” (priority 1994, dated 1996).
